Source: the supplement of paper PMC11061612

What was measured:
[1] = test system: FU97 (Gastric Carcinoma); assay: Bliss excess, mean over the matrix (fraction); higher = more synergy
Procedure, shortened: (§1)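 Cell lines grown in DMEM/F12 or RPMI with 10% FBS were plated in 1536-well plates and held 24 hours at 37°C, 5% CO2 before 72 hours of exposure to two-drug dose matrices, with DMSO typically at 0.2%. CellTiter-Glo 2.0 luminescence gave viability, which was converted to inhibition. Vehicle wells were set to 0 and blank wells to 1. Combination Emax is the second-highest inhibition in the matrix, and Bliss excess is the observed combination effect minus the expected EA + EB − EA·EB, where EA and EB are the single-agent effects.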

[2] = test system: COLO-320-HSR (Colorectal Carcinoma); assay: as above
Procedure, shortened: as §1

[3] = test system: ECC10 (Gastric Carcinoma); assay: as above
Procedure, shortened: as §1

[4] = test system: CCK-81 (Colorectal Carcinoma); assay: as above
Procedure, shortened: as §1

[5] = test system: BICR22 (Oral Cavity Carcinoma); assay: as above
Procedure, shortened: as §1

[6] = test system: NCI-H1666 (Lung Adenocarcinoma); assay: as above
Procedure, shortened: as §1

[7] = test system: CAPAN-2 (Pancreatic Carcinoma); assay: as above
Procedure, shortened: as §1

[8] = test system: NCI-H2066 (Squamous Cell Lung Carcinoma); assay: as above
Procedure, shortened: as §1

[9] = test system: ONS-76 (Other Solid Carcinomas); assay: as above
Procedure, shortened: as §1

[10] = test system: NCI-H1581 (Non-Small Cell Lung Carcinoma); assay: as above
Procedure, shortened: as §1

[11] = test system: PANC-10-05 (Pancreatic Carcinoma); assay: as above
Procedure, shortened: as §1

[12] = test system: KARPAS-422 (B-Cell Non-Hodgkin's Lymphoma); assay: as above
Procedure, shortened: as §1

[13] = test system: VCaP (Prostate Carcinoma); assay: as above
Procedure, shortened: as §1

[14] = test system: U-2-OS (Osteosarcoma); assay: as above
Procedure, shortened: as §1

[15] = test system: NCI-H64 (Small Cell Lung Carcinoma); assay: as above
Procedure, shortened: as §1

[16] = test system: IGR-37 (Melanoma); assay: as above
Procedure, shortened: as §1

[17] = test system: TT (Thyroid Gland Carcinoma); assay: as above
Procedure, shortened: as §1

[18] = test system: NY (Osteosarcoma); assay: as above
Procedure, shortened: as §1

[19] = test system: FU97 (Gastric Carcinoma); assay: combination Emax (second highest fraction inhibited in the dose matrix, 72 h); higher = more inhibition; extreme values may be limits of the assay
Procedure, shortened: as §1

[20] = test system: COLO-320-HSR (Colorectal Carcinoma); assay: as above
Procedure, shortened: as §1

[21] = test system: ECC10 (Gastric Carcinoma); assay: as above
Procedure, shortened: as §1

[22] = test system: CCK-81 (Colorectal Carcinoma); assay: as above
Procedure, shortened: as §1

[23] = test system: BICR22 (Oral Cavity Carcinoma); assay: as above
Procedure, shortened: as §1

[24] = test system: NCI-H1666 (Lung Adenocarcinoma); assay: as above
Procedure, shortened: as §1

[25] = test system: CAPAN-2 (Pancreatic Carcinoma); assay: as above
Procedure, shortened: as §1

[26] = test system: NCI-H2066 (Squamous Cell Lung Carcinoma); assay: as above
Procedure, shortened: as §1

[27] = test system: ONS-76 (Other Solid Carcinomas); assay: as above
Procedure, shortened: as §1

[28] = test system: NCI-H1581 (Non-Small Cell Lung Carcinoma); assay: as above
Procedure, shortened: as §1

[29] = test system: PANC-10-05 (Pancreatic Carcinoma); assay: as above
Procedure, shortened: as §1

[30] = test system: KARPAS-422 (B-Cell Non-Hodgkin's Lymphoma); assay: as above
Procedure, shortened: as §1

[31] = test system: VCaP (Prostate Carcinoma); assay: as above
Procedure, shortened: as §1

[32] = test system: U-2-OS (Osteosarcoma); assay: as above
Procedure, shortened: as §1

[33] = test system: NCI-H64 (Small Cell Lung Carcinoma); assay: as above
Procedure, shortened: as §1

[34] = test system: IGR-37 (Melanoma); assay: as above
Procedure, shortened: as §1

[35] = test system: TT (Thyroid Gland Carcinoma); assay: as above
Procedure, shortened: as §1

[36] = test system: NY (Osteosarcoma); assay: as above
Procedure, shortened: as §1
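Throughout, for Bliss excess, mean over the matrix: after 72 h of two-drug dosing.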

| Structure (SMILES) | Bliss excess [1] | Bliss excess [2] | Bliss excess [3] | Bliss excess [4] | Bliss excess [5] | Bliss excess [6] | Bliss excess [7] | Bliss excess [8] | Bliss excess [9] | Bliss excess [10] | Bliss excess [11] | Bliss excess [12] | Bliss excess [13] | Bliss excess [14] | Bliss excess [15] | Bliss excess [16] | Bliss excess [17] | Bliss excess [18] | combination Emax [19] | combination Emax [20] | combination Emax [21] | combination Emax [22] | combination Emax [23] | combination Emax [24] | combination Emax [25] | combination Emax [26] | combination Emax [27] | combination Emax [28] | combination Emax [29] | combination Emax [30] | combination Emax [31] | combination Emax [32] | combination Emax [33] | combination Emax [34] | combination Emax [35] | combination Emax [36] |
| --- | --- | --- | --- | --- | --- | --- | --- | --- | --- | --- | --- | --- | --- | --- | --- | --- | --- | --- | --- | --- | --- | --- | --- | --- | --- | --- | --- | --- | --- | --- | --- | --- | --- | --- | --- | --- |
| Cc1c2c(nn1C)CSCc1cc(n(C)n1)CSc1cc(c3ccccc3c1)OCCCc1c(C(=O)O)n(C)c3c-2c(Cl)ccc13 [AZD5991] + CC(=O)O[C@H]1C(=O)[C@@]2(C)[C@H]([C@H](OC(=O)c3ccccc3)[C@]3(O)C[C@H](OC(=O)[C@H](O)[C@@H](NC(=O)c4ccccc4)c4ccccc4)C(C)=C1C3(C)C)[C@]1(OC(C)=O)CO[C@@H]1C[C@@H]2O [Paclitaxel] (first compound max 1 µM, 7x7, partner max 3 µM) | -0.0142 | -0.0443 | -0.0567 | -0.0396 | 0.0021 | -0.0239 | 0.0086 | -0.027 | -0.0383 | 0.0114 | 0.0368 | 0.0084 | 0.0074 | -0.0291 | 0.0573 | 0.0439 | -0.0423 | 0.0268 | 0.257 | 0.991 | 0.942 | 0.989 | 0.98 | 0.563 | 0.144 | 0.589 | 0.644 | 1 | 0.569 | 0.996 | 0.977 | 0.735 | 0.719 | 0.885 | 0.26 | 0.963 |
| Cc1c2c(nn1C)CSCc1cc(n(C)n1)CSc1cc(c3ccccc3c1)OCCCc1c(C(=O)O)n(C)c3c-2c(Cl)ccc13 [AZD5991] + CS(=O)(=O)CCNCc1ccc(-c2ccc3ncnc(Nc4ccc(OCc5cccc(F)c5)c(Cl)c4)c3c2)o1 [Lapatinib] (first compound max 1 µM, 7x7, partner max 10 µM) | -0.0583 | 0.0422 | 0.0088 | 0.055 | 0.0948 | 0.0641 | -0.0087 | -0.0195 | -0.0232 | -0.0138 | -0.0585 | -0.0425 | -0.0052 | -0.0345 | -0.0332 | -0.0622 | 0.0128 | -0.0523 | 0.906 | 1 | 0.975 | 1 | 0.969 | 0.942 | 0.186 | 0.426 | 0.294 | 0.968 | 0.474 | 0.965 | 0.96 | 0.197 | 0.111 | 0.36 | 0.237 | 0.564 |
| Cc1c2c(nn1C)CSCc1cc(n(C)n1)CSc1cc(c3ccccc3c1)OCCCc1c(C(=O)O)n(C)c3c-2c(Cl)ccc13 [AZD5991] + Nc1ccn([C@@H]2O[C@H](CO)[C@@H](O)C2(F)F)c(=O)n1 [Gemcitabine] (first compound max 1 µM, 7x7, partner max 0.3 µM) | 0.0193 | -0.0386 | 0.0593 | 0.0013 | -0.0254 | -0.0299 | -0.035 | -0.0415 | 0.0088 | 0.0459 | -0.0263 | -0.0219 | 0.0667 | -0.0017 | 0.0292 | 0.011 | -0.0048 | -0.0564 | 0.232 | 0.944 | 0.935 | 0.942 | 0.957 | 0.473 | 0.101 | 0.184 | 0.499 | 0.998 | 0.472 | 0.979 | 0.977 | 0.387 | 0.37 | 0.79 | 0.405 | 0.88 |
| C[C@@H]1COCCN1c1cc(C2([S@](C)(=N)=O)CC2)nc(-c2ccnc3[nH]ccc23)n1 [AZD6738] + C1CC(C1)(C(=O)[O-])C(=O)[O-].N.N.[Pt+2] [Carboplatin] (first compound max 10 µM, 7x7, partner max 10 µM) | -0.0215 | -0.036 | -0.0097 | -0.0429 | -0.0297 | -0.0814 | -0.0168 | -0.0715 | -0.0512 | -0.0399 | -0.0611 | -0.0683 | -0.0644 | -0.0234 | -0.0431 | -0.0539 | -0.0108 | -0.0504 | 0.349 | 0.495 | 0.397 | 0.886 | 0.804 | 0.304 | 0.159 | 0.412 | 0.814 | 0.281 | 0.477 | 0.434 | 0.48 | 0.511 | 0.793 | 0.616 | 0.442 | 0.568 |
| Cc1cc2ncnn2cc1Nc1ncc2c(n1)n(C1CCOCC1)c(=O)n2C [AZD7648] + COc1cc([C@@H]2c3cc4c(cc3[C@@H](O[C@@H]3O[C@@H]5CO[C@@H](C)O[C@H]5[C@H](O)[C@H]3O)[C@H]3COC(=O)[C@H]23)OCO4)cc(OC)c1O [Etoposide] (first compound max 10 µM, 7x7, partner max 10 µM) | -0.0016 | 0.0573 | 0.108 | 0.093 | 0.13 | 0.0131 | 0.0103 | -0.03 | 0.0815 | 0.0368 | 0.0148 | -0.0391 | 0.0464 | 0.0528 | -0.0142 | 0.0178 | 0.0627 | 0.0475 | 0.298 | 0.606 | 0.913 | 0.565 | 0.856 | 0.401 | 0.186 | 0.332 | 0.748 | 0.787 | 0.636 | 0.884 | 0.579 | 0.647 | 0.316 | 0.703 | 0.431 | 0.654 |
| C[C@@H](Nc1cc(F)cc(F)c1)c1cc(C(=O)N(C)C)cc2c(=O)cc(N3CCOCC3)oc12 [AZD8186] + C1CN(CCC1(C(=O)N[C@@H](CCO)C2=CC=C(C=C2)Cl)N)C3=NC=NC4=C3C=CN4 [AZD5363] (first compound max 10 µM, 7x7, partner max 10 µM) | -0.0072 | 0.0159 | 0.0141 | -0.0118 | 0.0421 | -0.0707 | -0.0305 | -0.0364 | -0.028 | -0.0207 | -0.0847 | -0.106 | -0.0177 | -0.0324 | 0.0116 | 0.0334 | -0.0413 | 0.0425 | 0.374 | 0.184 | 0.276 | 0.266 | 0.308 | 0.406 | 0.285 | 0.513 | 0.312 | 0.101 | 0.436 | 0.628 | 0.443 | 0.279 | 0.277 | 0.44 | 0.415 | 0.325 |
| C[C@@H](Nc1cc(F)cc(F)c1)c1cc(C(=O)N(C)C)cc2c(=O)cc(N3CCOCC3)oc12 [AZD8186] + CC(=O)c1c(C)c2cnc(Nc3ccc(N4CCNCC4)cn3)nc2n(C2CCCC2)c1=O [Palbociclib] (first compound max 10 µM, 7x7, partner max 10 µM) | 0.0755 | 0.0312 | 0.08 | 0.0824 | -0.0275 | -0.0433 | 0.0182 | -0.0299 | 0.0763 | 0.085 | -0.0689 | 0.018 | 0.0706 | 0.0498 | 0.0127 | 0.0795 | 0.0582 | 0.0895 | 0.386 | 0.382 | 0.661 | 0.418 | 0.192 | 0.454 | 0.213 | 0.319 | 0.424 | 0.651 | 0.383 | 0.707 | 0.371 | 0.391 | 0.469 | 0.464 | 0.416 | 0.408 |
